This experiment addresses DDE (fibrin-derived polypeptide) (Homo sapiens, UniProt P02671+P02675+P02679). Kind of experiment: Direct binding fluorescence polarization (FP) assay using 5-carboxyfluorescein labeled peptides. The conditions noted are these: 20 nM CF5-labeled peptide, serial dilutions of DDE, anisotropy read at 485 nm; read-out: KD (μM) Direct Binding (n = 2). As to the method:
Assay of Fibrin Binding Peptides by Direct Binding Fluorescence Polarization (FP) Procedure using 5-Carboxyfluoresein Labeled Peptides
Protocol • 1. Prepare 1 mL of 40 nM solution of 5-carboxyfluorescein-labeled peptide in HEPES dilution buffer (HDB) with 0.01% Tween. • HDB (10 mM HEPES, 150 mM […], 2 mM CaCl2) • 2. Dilute the 40 nM solution to obtain 1 ml of a 20 nM solution of the test 5-carboxyfluorescein-labeled peptide. • 3. Prepare a solution of DDE at a concentration that will be approximately 5-10 fold greater than the expected KD. For the described assay an 8 μM concentration of DDE was prepared. • 4. Mix equal volumes of the DDE solution with the 40 nM peptide solution. • 5. Prepare serial dilutions of DDE in a solution consisting of the binding buffer with 0.01% Tween20 and 20 nM of the 5-carboxyfluorescein-labeled peptide. • 6. Make dilutions as shown in the following table in a Labsystems 384-well microplate and mix by repeated aspiration and dispensing of the solution into the wells. • 7. Centrifuge the plate at 2000 RPM for 5 minutes to remove air pockets in the wells. • 8. Read in Tecan Polarion Plate Reader at 485 nm to obtain the anisotropy value.
The anisotropy (in mP—millipolarization units) vs the logarithm of the concentration (micromoles/liter) of the receptor concentration is graphed. The dissociation constant is obtained at the midpoint of the curve whose extrema are Afree and Abound where Afree is the anisotropy of the free peptide and Abound is the anisotropy of the fully bound peptide. The theory, methods of operation and mathematical analysis is described in, for example, the following reference: Fluorescence Polarization Technical Resource Guide Technical Resource Guide 4th Edn. Invitrogen Corporation•501 Charmany Drive•Madison, Wis. 53719 USA. Particularly, the mathematical analysis of the data and obtaining binding constants is described in Chapter 8: Analysis of FP Binding Data pp 8-2-8-7.
For orientation: In fluorescence polarisation assays a small probe gives low polarisation when free and higher when bound to something large.

Structures are written as SMILES. Bridge positions count the residues as written; N and C are the ends. Peptide text beside a SMILES is read from it. * marks the point of attachment. ξ: configuration not given here. αGalNAc = CC(=O)N[C@@H]1[C@@H](O)[C@@H](O)[C@@H](CO)O[C@@H]1*; 5FAM = O=C1OC2(c3ccc(O)cc3Oc3cc(O)ccc32)c2ccc(C(=O)*)cc21; ξTetrahydrofuran2carbonyl = O=C(C1CCCO1)*

As usually defined, the Kd is the constant that tells how readily two partners part at equilibrium.

Sequence of DDE (fibrin-derived polypeptide) (P02671 124-216): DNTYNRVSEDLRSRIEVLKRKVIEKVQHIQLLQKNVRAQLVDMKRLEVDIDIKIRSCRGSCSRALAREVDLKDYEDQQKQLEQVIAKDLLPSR
Sequence of DDE (fibrin-derived polypeptide) (P02675 164-491): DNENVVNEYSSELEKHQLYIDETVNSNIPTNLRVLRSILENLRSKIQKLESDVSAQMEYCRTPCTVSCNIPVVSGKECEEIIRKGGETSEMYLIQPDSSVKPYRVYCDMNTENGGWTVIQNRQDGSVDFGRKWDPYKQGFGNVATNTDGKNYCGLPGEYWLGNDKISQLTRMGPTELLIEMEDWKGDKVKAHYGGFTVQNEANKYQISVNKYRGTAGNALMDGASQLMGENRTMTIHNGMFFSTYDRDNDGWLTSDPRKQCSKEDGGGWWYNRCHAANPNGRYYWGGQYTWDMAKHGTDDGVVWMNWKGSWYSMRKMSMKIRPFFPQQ
Sequence of DDE (fibrin-derived polypeptide) (P02679 114-432): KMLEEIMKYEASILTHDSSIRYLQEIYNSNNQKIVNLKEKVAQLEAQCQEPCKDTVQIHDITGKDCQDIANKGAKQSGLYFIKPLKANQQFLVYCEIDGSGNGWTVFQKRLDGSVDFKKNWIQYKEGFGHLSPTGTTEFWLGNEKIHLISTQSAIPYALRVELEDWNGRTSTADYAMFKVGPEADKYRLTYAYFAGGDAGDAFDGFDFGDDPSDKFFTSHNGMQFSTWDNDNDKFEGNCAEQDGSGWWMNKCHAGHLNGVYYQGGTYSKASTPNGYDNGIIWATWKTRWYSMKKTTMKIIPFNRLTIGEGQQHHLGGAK
Sequence of DDE (fibrin-derived polypeptide) (P02671 36-97): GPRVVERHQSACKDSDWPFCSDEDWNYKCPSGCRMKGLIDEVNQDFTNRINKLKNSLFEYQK
Sequence of DDE (fibrin-derived polypeptide) (P02675 45-152): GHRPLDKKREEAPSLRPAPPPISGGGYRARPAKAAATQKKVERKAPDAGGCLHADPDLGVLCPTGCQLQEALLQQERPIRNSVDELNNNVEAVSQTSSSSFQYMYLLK
Sequence of DDE (fibrin-derived polypeptide) (P02679 27-88): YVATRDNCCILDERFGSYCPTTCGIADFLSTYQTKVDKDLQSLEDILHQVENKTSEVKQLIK

As for `CC(=O)N[C@@H](CO)C(=O)NCC(=O)N[C@@H](CO)C(=O)NCC(=O)N[C@@H](CO)C(=O)NCC(=O)N[C@@H](CO)C(=O)NCC(=O)N[C@@H](Cc1c[nH]c2ccccc12)C(=O)N[C@@H](CCC(N)=O)C(=O)N1CCC[C@H]1C(=O)N[C@H]1CSSC[C@@H](C(=O)N[C@@H](Cc2c[nH]c3ccccc23)C(=O)N[C@@H](CC(=O)O)C(=O)N2CCC[C@H]2C(=O)NCC(=O)NCC(=O)NCC(=O)N[C@@H](CCCCNC(=O)c2ccc3c(c2)C(=O)OC32c3ccc(O)cc3Oc3cc(O)ccc32)C(N)=O)NC(=O)[C@H](Cc2ccccc2)NC(=O)[C@H]([C@@H](C)O)NC(=O)[C@H](Cc2c[nH]c3ccccc23)NC(=O)[C@H](CO)NC(=O)[C@H](CCC(=O)O)NC(=O)[C@H](Cc2c[nH]c3ccccc23)NC(=O)[C@@H]2CCCN2C1=O` [Seq024-CF5] (Ac-SGSGSGSGWQPCPWESWTFCWDPGGGK(5FAM)-NH2; disulfide 12-20), the Kd amounted to 0.47 µM.

Take `CC(=O)N[C@@H](CCCCN)C(=O)N[C@@H](CCCCN)C(=O)NCC(=O)N[C@@H](Cc1c[nH]c2ccccc12)C(=O)N[C@@H](CCC(N)=O)C(=O)N1CCC[C@H]1C(=O)N[C@H]1CSSC[C@@H](C(=O)N[C@@H](Cc2c[nH]c3ccccc23)C(=O)N[C@@H](CC(=O)O)C(=O)N2CCC[C@H]2C(=O)NCC(=O)NCC(=O)NCC(=O)N[C@@H](CCCCNC(=O)c2ccc3c(c2)C(=O)OC32c3ccc(O)cc3Oc3cc(O)ccc32)C(N)=O)NC(=O)[C@H](Cc2ccccc2)NC(=O)[C@H]([C@@H](C)O)NC(=O)[C@H](Cc2c[nH]c3ccccc23)NC(=O)[C@H](CO)NC(=O)[C@H](CCC(=O)O)NC(=O)[C@H](Cc2c[nH]c3ccccc23)NC(=O)[C@@H]2CCCN2C1=O` [Seq025-CF5] (Ac-KKGWQPCPWESWTFCWDPGGGK(5FAM)-NH2; disulfide 7-15): the dissociation constant Kd was 0.71 µM.

As to `CC(=O)N[C@@H](CCCCN)C(=O)NCC(=O)N[C@@H](CCCCN)C(=O)NCC(=O)N[C@@H](CCCCN)C(=O)NCC(=O)N[C@@H](Cc1c[nH]c2ccccc12)C(=O)N[C@@H](CCC(N)=O)C(=O)N1CCC[C@H]1C(=O)N[C@H]1CSSC[C@@H](C(=O)N[C@@H](Cc2c[nH]c3ccccc23)C(=O)N[C@@H](CC(=O)O)C(=O)N2CCC[C@H]2C(=O)NCC(=O)NCC(=O)NCC(=O)N[C@@H](CCCCNC(=O)c2ccc3c(c2)C(=O)OC32c3ccc(O)cc3Oc3cc(O)ccc32)C(N)=O)NC(=O)[C@H](Cc2ccccc2)NC(=O)[C@H]([C@@H](C)O)NC(=O)[C@H](Cc2c[nH]c3ccccc23)NC(=O)[C@H](CO)NC(=O)[C@H](CCC(=O)O)NC(=O)[C@H](Cc2c[nH]c3ccccc23)NC(=O)[C@@H]2CCCN2C1=O` [Seq026-CF5] (Ac-KGKGKGWQPCPWESWTFCWDPGGGK(5FAM)-NH2; disulfide 10-18), the dissociation constant Kd stood at 0.76 µM.

Turning to `CC(=O)N[C@H]1[C@@H](OC[C@H](NC(C)=O)C(=O)N[C@@H](Cc2c[nH]c3ccccc23)C(=O)N[C@@H](CCC(N)=O)C(=O)N2CCC[C@H]2C(=O)N[C@H]2CSSC[C@@H](C(=O)N[C@@H](Cc3c[nH]c4ccccc34)C(=O)N[C@@H](CC(=O)O)C(=O)N3CCC[C@H]3C(=O)NCC(=O)NCC(=O)NCC(=O)N[C@@H](CCCCNC(=O)c3ccc4c(c3)C(=O)OC43c4ccc(O)cc4Oc4cc(O)ccc43)C(N)=O)NC(=O)[C@H](Cc3ccccc3)NC(=O)[C@H]([C@@H](C)O)NC(=O)[C@H](Cc3c[nH]c4ccccc34)NC(=O)[C@H](CO)NC(=O)[C@H](CCC(=O)O)NC(=O)[C@H](Cc3c[nH]c4ccccc34)NC(=O)[C@@H]3CCCN3C2=O)O[C@H](CO)[C@H](O)[C@@H]1O` [Seq027-CF5] (Ac-S(αGalNAc)WQPCPWESWTFCWDPGGGK(5FAM)-NH2; disulfide 5-13), the Kd amounted to 0.5 µM.

Regarding `C[C@@H](O)[C@@H]1NC(=O)[C@H](Cc2c[nH]c3ccccc23)NC(=O)[C@H](CO)NC(=O)[C@H](CCC(=O)O)NC(=O)[C@H](Cc2c[nH]c3ccccc23)NC(=O)[C@@H]2CCCN2C(=O)[C@@H](NC(=O)[C@@H]2CCCN2C(=O)[C@H](CCC(N)=O)NC(=O)[C@H](Cc2c[nH]c3ccccc23)NC(=O)C2CCCO2)CSSC[C@@H](C(=O)N[C@@H](Cc2c[nH]c3ccccc23)C(=O)N[C@@H](CC(=O)O)C(=O)N2CCC[C@H]2C(=O)NCC(=O)NCC(=O)NCC(=O)N[C@@H](CCCCNC(=O)c2ccc3c(c2)C(=O)OC32c3ccc(O)cc3Oc3cc(O)ccc32)C(N)=O)NC(=O)[C@H](Cc2ccccc2)NC1=O` (stereo partly shown) [Seq028-CF5] (ξTetrahydrofuran2carbonyl-WQPCPWESWTFCWDPGGGK(5FAM)-NH2; disulfide 4-12), the dissociation constant Kd was found to be 1.21 µM.

Take `CC(=O)NCC(=O)N1CCC[C@H]1C(=O)N1CCC[C@H]1C(=O)NCC(=O)N[C@@H](Cc1c[nH]c2ccccc12)C(=O)N[C@@H](CCC(N)=O)C(=O)N1CCC[C@H]1C(=O)N[C@H]1CSSC[C@@H](C(=O)N[C@@H](Cc2c[nH]c3ccccc23)C(=O)N[C@@H](CC(=O)O)C(=O)N2CCC[C@H]2C(=O)NCC(=O)NCC(=O)NCC(=O)N[C@@H](CCCCNC(=O)c2ccc3c(c2)C(=O)OC32c3ccc(O)cc3Oc3cc(O)ccc32)C(N)=O)NC(=O)[C@H](Cc2ccccc2)NC(=O)[C@H]([C@@H](C)O)NC(=O)[C@H](Cc2c[nH]c3ccccc23)NC(=O)[C@H](CO)NC(=O)[C@H](CCC(=O)O)NC(=O)[C@H](C)NC(=O)[C@@H]2CCCN2C1=O` [Seq034-CF5] (Ac-GPPGWQPCPAESWTFCWDPGGGK(5FAM)-NH2; disulfide 8-16): the equilibrium dissociation constant (Kd) came to 0.31 µM.

For the compound `CC(=O)NCC(=O)NCC(=O)N[C@@H](CCCNC(=N)N)C(=O)NCC(=O)N[C@@H](Cc1c[nH]c2ccccc12)C(=O)N[C@@H](CCC(N)=O)C(=O)N1CCC[C@H]1C(=O)N[C@H]1CSSC[C@@H](C(=O)N[C@@H](Cc2c[nH]c3ccccc23)C(=O)N[C@@H](CC(=O)O)C(=O)N2CCC[C@H]2C(=O)NCC(=O)NCC(=O)NCC(=O)N[C@@H](CCCCNC(=O)c2ccc3c(c2)C(=O)OC32c3ccc(O)cc3Oc3cc(O)ccc32)C(N)=O)NC(=O)[C@H](Cc2ccccc2)NC(=O)[C@H]([C@@H](C)O)NC(=O)[C@H](Cc2c[nH]c3ccccc23)NC(=O)[C@H](CO)NC(=O)[C@H](CCC(=O)O)NC(=O)[C@H](C)NC(=O)[C@@H]2CCCN2C1=O` [Seq035-CF5] (Ac-GGRGWQPCPAESWTFCWDPGGGK(5FAM)-NH2; disulfide 8-16), the Kd came out at 0.52 µM.

As for `C[C@@H]1NC(=O)[C@@H]2CCCN2C(=O)[C@@H](NC(=O)[C@@H]2CCCN2C(=O)[C@H](CCC(N)=O)NC(=O)[C@H](Cc2c[nH]c3ccccc23)NC(=O)CN)CSSC[C@@H](C(=O)N[C@@H](Cc2c[nH]c3ccccc23)C(=O)N[C@@H](CC(=O)O)C(=O)N2CCC[C@H]2C(=O)NCC(=O)NCC(=O)NCC(=O)N[C@@H](CCCCNC(=O)c2ccc3c(c2)C(=O)OC32c3ccc(O)cc3Oc3cc(O)ccc32)C(N)=O)NC(=O)[C@H](Cc2ccccc2)NC(=O)[C@H]([C@@H](C)O)NC(=O)[C@H](Cc2c[nH]c3ccccc23)NC(=O)[C@H](CO)NC(=O)[C@H](CCC(=O)O)NC1=O` [Seq038-CF5] (H-GWQPCPAESWTFCWDPGGGK(5FAM)-NH2; disulfide 5-13; N-terminus assumed), the dissociation constant Kd is 0.24 µM.

Turning to `CC(=O)NCC(=O)N[C@@H](Cc1c[nH]c2ccccc12)C(=O)N[C@@H](CCC(N)=O)C(=O)N1CCC[C@H]1C(=O)N[C@H]1CSSC[C@@H](C(=O)N[C@@H](Cc2c[nH]c3ccccc23)C(=O)N[C@@H](CC(=O)O)C(=O)N2CCC[C@H]2C(=O)NCC(=O)NCC(=O)NCC(=O)N[C@@H](CCCCNC(=O)c2ccc3c(c2)C(=O)OC32c3ccc(O)cc3Oc3cc(O)ccc32)C(N)=O)NC(=O)[C@H](Cc2ccccc2)NC(=O)[C@H]([C@@H](C)O)NC(=O)[C@H](Cc2c[nH]c3ccccc23)NC(=O)[C@H](CO)NC(=O)[C@H](CCC(=O)O)NC(=O)[C@H](C)NC(=O)[C@@H]2CCCN2C1=O` [Seq039-CF5] (Ac-GWQPCPAESWTFCWDPGGGK(5FAM)-NH2; disulfide 5-13), the dissociation constant (Kd) was determined as 0.24 µM.

As for `CC(=O)N[C@@H](CO)C(=O)NCC(=O)N[C@@H](CO)C(=O)NCC(=O)N[C@@H](CO)C(=O)NCC(=O)N[C@@H](CO)C(=O)NCC(=O)N[C@@H](Cc1c[nH]c2ccccc12)C(=O)N[C@@H](CCC(N)=O)C(=O)N1CCC[C@H]1C(=O)N[C@H]1CSSC[C@@H](C(=O)N[C@@H](Cc2c[nH]c3ccccc23)C(=O)N[C@@H](CC(=O)O)C(=O)N2CCC[C@H]2C(=O)NCC(=O)NCC(=O)NCC(=O)N[C@@H](CCCCNC(=O)c2ccc3c(c2)C(=O)OC32c3ccc(O)cc3Oc3cc(O)ccc32)C(N)=O)NC(=O)[C@H](Cc2ccccc2)NC(=O)[C@H]([C@@H](C)O)NC(=O)[C@H](Cc2c[nH]c3ccccc23)NC(=O)[C@H](CO)NC(=O)[C@H](CCC(=O)O)NC(=O)[C@H](C)NC(=O)[C@@H]2CCCN2C1=O` [Seq040-CF5] (Ac-SGSGSGSGWQPCPAESWTFCWDPGGGK(5FAM)-NH2; disulfide 12-20), the Kd amounted to 0.53 µM.

For the origin of these results see patent US8466107B2, “Fibrin-binding peptides and conjugates thereof” (Bracco Imaging SpA, priority 2006, dated 2013).
